Reference: ChEMBL document CHEMBL1155084 (J Med Chem, 2008)

Legend:
[1] = molecular target: Mitogen-activated protein kinase 14 (Homo sapiens, UniProt Q16539); assay: Inhibition of p38alpha
[2] = tested on: Blood; assay: Inhibition of TNFalpha release in human whole blood; assay type: functional, tissue-based
[3] = tested on: Blood; assay: Inhibition of IL1-beta release in human whole blood; assay type: functional, tissue-based
[4] = molecular target: T1, CYP1A2 (Homo sapiens, UniProt P05177); assay: Inhibition of CYP1A2 at 10 uM; assay type: ADME
T1 sequence (P05177 whole entry): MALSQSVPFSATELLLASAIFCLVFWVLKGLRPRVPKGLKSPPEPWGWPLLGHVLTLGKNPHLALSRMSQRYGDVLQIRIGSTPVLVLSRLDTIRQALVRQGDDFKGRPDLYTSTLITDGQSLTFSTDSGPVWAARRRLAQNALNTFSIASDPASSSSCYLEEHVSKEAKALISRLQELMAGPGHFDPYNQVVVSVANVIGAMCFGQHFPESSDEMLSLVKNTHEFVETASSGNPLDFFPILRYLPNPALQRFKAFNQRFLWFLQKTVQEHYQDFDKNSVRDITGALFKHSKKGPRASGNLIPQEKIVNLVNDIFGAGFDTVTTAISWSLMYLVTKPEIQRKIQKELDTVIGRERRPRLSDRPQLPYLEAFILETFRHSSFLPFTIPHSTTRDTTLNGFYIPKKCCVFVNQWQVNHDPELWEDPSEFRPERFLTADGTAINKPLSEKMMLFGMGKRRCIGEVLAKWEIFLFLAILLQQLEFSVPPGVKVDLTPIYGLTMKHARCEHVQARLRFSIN

[5] = molecular target: CYP2C9 (Homo sapiens, UniProt P11712); assay: Inhibition of CYP2C9 at 10 uM; assay type: ADME
[6] = molecular target: CYP2C19 (Homo sapiens, UniProt P33261); assay: Inhibition of CYP2C19 at 10 uM; assay type: ADME
[7] = molecular target: CYP3A4 (Homo sapiens, UniProt P08684); assay: Inhibition of CYP3A4 at 10 uM; assay type: ADME
[8] = molecular target: CYP2D6 (Homo sapiens, UniProt P10635); assay: Inhibition of CYP2D6 at 10 uM; assay type: ADME
Sequence of CYP2D6 (P10635 whole entry): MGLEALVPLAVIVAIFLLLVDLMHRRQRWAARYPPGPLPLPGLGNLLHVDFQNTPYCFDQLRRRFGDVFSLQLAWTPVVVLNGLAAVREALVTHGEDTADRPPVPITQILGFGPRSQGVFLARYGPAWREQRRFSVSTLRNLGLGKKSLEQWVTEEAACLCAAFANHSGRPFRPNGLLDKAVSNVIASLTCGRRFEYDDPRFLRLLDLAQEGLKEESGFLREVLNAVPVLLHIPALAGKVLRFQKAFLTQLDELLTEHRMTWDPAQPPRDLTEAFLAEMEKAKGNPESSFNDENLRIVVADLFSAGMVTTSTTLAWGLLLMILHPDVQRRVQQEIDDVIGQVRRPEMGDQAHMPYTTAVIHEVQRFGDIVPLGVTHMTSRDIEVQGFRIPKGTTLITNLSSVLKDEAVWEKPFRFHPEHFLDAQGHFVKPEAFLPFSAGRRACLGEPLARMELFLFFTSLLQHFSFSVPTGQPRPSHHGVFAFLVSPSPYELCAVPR

Sequence of Mitogen-activated protein kinase 14 (Q16539 whole entry): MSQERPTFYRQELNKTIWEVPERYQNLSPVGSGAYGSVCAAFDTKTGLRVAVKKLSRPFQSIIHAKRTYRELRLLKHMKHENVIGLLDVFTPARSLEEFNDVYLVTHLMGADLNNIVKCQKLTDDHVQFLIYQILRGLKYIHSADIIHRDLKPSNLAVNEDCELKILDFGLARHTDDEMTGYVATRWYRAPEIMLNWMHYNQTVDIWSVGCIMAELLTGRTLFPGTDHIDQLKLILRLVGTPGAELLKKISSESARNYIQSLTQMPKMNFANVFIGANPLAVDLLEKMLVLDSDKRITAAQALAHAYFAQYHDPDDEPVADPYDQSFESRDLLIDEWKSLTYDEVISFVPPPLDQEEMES
Sequence of CYP2C9 (P11712 whole entry): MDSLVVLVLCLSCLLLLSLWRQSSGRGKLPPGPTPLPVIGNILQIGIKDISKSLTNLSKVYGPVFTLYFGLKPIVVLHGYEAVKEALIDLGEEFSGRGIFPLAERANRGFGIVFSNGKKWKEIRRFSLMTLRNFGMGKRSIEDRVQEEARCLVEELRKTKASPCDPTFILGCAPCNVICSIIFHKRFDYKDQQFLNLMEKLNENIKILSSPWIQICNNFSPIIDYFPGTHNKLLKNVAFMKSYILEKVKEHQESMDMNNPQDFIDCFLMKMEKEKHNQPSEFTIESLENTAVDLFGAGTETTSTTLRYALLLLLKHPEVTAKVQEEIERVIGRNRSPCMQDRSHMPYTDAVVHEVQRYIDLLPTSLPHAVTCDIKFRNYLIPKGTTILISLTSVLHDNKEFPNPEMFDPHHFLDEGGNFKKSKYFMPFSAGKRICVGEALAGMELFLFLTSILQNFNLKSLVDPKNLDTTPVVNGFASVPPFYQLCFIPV
Sequence of CYP3A4 (P08684 whole entry): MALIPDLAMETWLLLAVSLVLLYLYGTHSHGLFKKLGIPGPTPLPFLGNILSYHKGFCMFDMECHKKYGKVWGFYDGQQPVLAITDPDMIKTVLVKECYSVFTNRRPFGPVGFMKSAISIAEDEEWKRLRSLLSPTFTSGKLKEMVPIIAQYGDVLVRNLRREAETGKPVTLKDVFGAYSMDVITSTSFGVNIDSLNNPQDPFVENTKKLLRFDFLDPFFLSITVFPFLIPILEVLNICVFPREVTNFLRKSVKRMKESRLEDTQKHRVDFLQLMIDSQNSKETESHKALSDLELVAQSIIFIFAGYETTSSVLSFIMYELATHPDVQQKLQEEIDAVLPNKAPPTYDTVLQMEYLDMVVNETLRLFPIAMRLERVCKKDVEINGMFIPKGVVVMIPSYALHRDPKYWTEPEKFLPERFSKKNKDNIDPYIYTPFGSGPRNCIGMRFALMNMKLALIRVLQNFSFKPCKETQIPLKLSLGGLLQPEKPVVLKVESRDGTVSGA
Sequence of CYP2C19 (P33261 whole entry): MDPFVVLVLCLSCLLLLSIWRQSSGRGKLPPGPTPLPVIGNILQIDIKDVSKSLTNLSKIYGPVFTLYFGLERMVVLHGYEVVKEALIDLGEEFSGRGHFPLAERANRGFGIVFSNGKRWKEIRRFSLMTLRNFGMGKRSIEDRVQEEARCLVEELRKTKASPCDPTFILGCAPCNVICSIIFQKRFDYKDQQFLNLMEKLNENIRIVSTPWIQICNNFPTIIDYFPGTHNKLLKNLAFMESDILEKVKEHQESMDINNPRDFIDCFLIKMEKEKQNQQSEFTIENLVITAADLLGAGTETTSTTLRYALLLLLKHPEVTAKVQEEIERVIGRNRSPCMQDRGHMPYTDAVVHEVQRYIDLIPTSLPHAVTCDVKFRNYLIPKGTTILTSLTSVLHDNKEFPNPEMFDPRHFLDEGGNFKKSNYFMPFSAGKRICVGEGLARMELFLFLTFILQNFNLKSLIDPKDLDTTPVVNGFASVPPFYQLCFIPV

Fc1ccc(-c2nc(SCc3ccccc3)[nH]c2-c2ccnc(F)c2)cc1
IC50 [1]: 258 nM

CSc1nc(-c2ccc(F)cc2)c(-c2ccnc(NCc3ccc(F)cc3)c2)[nH]1
IC50 [2]: 22200 nM
IC50 [1]: 173 nM

CSc1nc(-c2ccc(F)cc2)c(-c2ccnc(F)c2)[nH]1
IC50 [2]: 29900 nM
IC50 [1]: 559 nM

CSc1nc(-c2cccc(C(F)(F)F)c2)c(-c2ccnc(NC(C)c3ccccc3)c2)[nH]1 (centres undefined)
IC50 [2]: 12200 nM
IC50 [1]: 199 nM

CCSc1nc(-c2cccc(C(F)(F)F)c2)c(-c2ccnc(F)c2)[nH]1
IC50 [2]: 71500 nM
IC50 [1]: 657 nM

CSc1nc(-c2ccc(F)cc2)c(-c2ccnc(NC3CCCCC3C)c2)[nH]1 (mixture of isomers)
IC50 [2]: 458 nM
IC50 [3]: 136 nM
IC50 [1]: 13 nM

CSc1nc(-c2ccnc(OCC3CCCO3)c2)c(-c2ccc(F)cc2)[nH]1 (centres undefined)
IC50 [2]: 11200 nM
IC50 [1]: 542 nM

CSc1nc(-c2ccc(F)cc2)c(-c2ccnc(NC(C)CC(C)C)c2)[nH]1 (centres undefined)
IC50 [2]: 700 nM
IC50 [1]: 26 nM

CCSc1nc(-c2ccc(F)cc2)c(-c2ccnc(F)c2)[nH]1
IC50 [1]: 213 nM

CSc1nc(-c2ccc(F)cc2)c(-c2ccnc(N[C@H]3CC[C@H](O)CC3)c2)[nH]1
IC50 [2]: 386 nM
IC50 [1]: 3 nM

COCCn1c(SC)nc(-c2ccc(F)cc2)c1-c1ccnc(NC2CCCC[C@H]2O)c1 (some centres undefined)
IC50 [1]: 211 nM

CCSc1nc(-c2ccc(F)cc2)c(-c2ccnc(Cl)c2)[nH]1
IC50 [2]: 36000 nM
IC50 [1]: 372 nM

CSc1nc(-c2cccc(C(F)(F)F)c2)c(-c2ccnc(N[C@H](C)C3CCCCC3)c2)[nH]1
IC50 [2]: 9890 nM
IC50 [1]: 36 nM

COCCn1c(SC)nc(-c2ccc(F)cc2)c1-c1ccnc(NC(C)CO)c1 (centres undefined)
IC50 [2]: 17400 nM
IC50 [1]: 292 nM

CSc1nc(-c2cccc(C(F)(F)F)c2)c(-c2ccnc(NCc3ccco3)c2)[nH]1
IC50 [2]: 14800 nM
IC50 [1]: 191 nM

CSc1nc(-c2ccc(F)cc2)c(-c2ccnc(NCCc3cc(C)ccc3C)c2)[nH]1
IC50 [2]: 51500 nM
IC50 [3]: 59300 nM
IC50 [1]: 82 nM

CSc1nc(-c2ccc(F)cc2)c(-c2ccnc(NCc3cc4ccccc4s3)c2)[nH]1
IC50 [2]: 55500 nM
IC50 [1]: 314 nM

CSc1nc(-c2cccc(C(F)(F)F)c2)c(-c2ccnc(NC(C)CCc3ccccc3)c2)[nH]1 (centres undefined)
IC50 [2]: 4640 nM
IC50 [3]: 1290 nM
IC50 [1]: 49 nM

CSc1nc(-c2ccc(F)cc2)c(-c2ccnc(NCCC(C)C)c2)[nH]1
IC50 [2]: 2430 nM
IC50 [1]: 90 nM

CSc1nc(-c2ccnc(NC3CCCCC3)c2)c(-c2ccc(F)cc2)[nH]1
IC50 [2]: 362 nM
IC50 [1]: 20 nM

CSc1nc(-c2ccc(F)cc2)c(-c2ccnc(NCCO)c2)[nH]1
IC50 [2]: 2040 nM
IC50 [1]: 45 nM

CSc1nc(-c2ccc(F)cc2)c(-c2ccnc(NCC(C)c3ccccc3)c2)[nH]1 (centres undefined)
IC50 [2]: 3930 nM
IC50 [3]: 10100 nM
IC50 [1]: 17 nM

CSc1nc(-c2ccc(F)cc2)c(-c2ccnc(N[C@H](C)C3CCCCC3)c2)[nH]1
IC50 [2]: 3300 nM
IC50 [1]: 9 nM

CSc1nc(-c2ccc(F)cc2)c(-c2ccnc(N[C@H]3CC[C@H](C)CC3)c2)[nH]1
IC50 [2]: 15800 nM
IC50 [1]: 15 nM

CSc1nc(-c2ccc(F)cc2)c(-c2ccnc(NC(C)C(C)(C)C)c2)[nH]1 (centres undefined)
IC50 [2]: 435 nM
IC50 [1]: 230 nM

CSc1nc(-c2cccc(C(F)(F)F)c2)c(-c2ccnc(NCc3ccccc3)c2)[nH]1
IC50 [2]: 38100 nM
IC50 [1]: 282 nM

CSc1nc(-c2cccc(C(F)(F)F)c2)c(-c2ccnc(F)c2)[nH]1
IC50 [2]: 44200 nM
IC50 [1]: 1090 nM

CSc1nc(-c2ccc(F)cc2)c(-c2ccnc(NCc3ccncc3)c2)[nH]1
IC50 [2]: 6220 nM
IC50 [1]: 119 nM

COCCn1c(SC)nc(-c2ccc(F)cc2)c1-c1ccnc(Nc2ccccc2)c1
IC50 [1]: 51 nM

CSc1nc(-c2ccc(F)cc2)c(-c2ccnc(NC(C)CO)c2)[nH]1 (centres undefined)
IC50 [2]: 439 nM
IC50 [1]: 6 nM

CCSc1cc(-c2nc(SC)[nH]c2-c2ccc(F)cc2)ccn1
IC50 [2]: 24100 nM
IC50 [3]: 61300 nM
IC50 [1]: 87 nM

COCCn1c(SC)nc(-c2ccc(F)cc2)c1-c1ccnc(N[C@H](C)C2CCCCC2)c1
IC50 [2]: 28000 nM
IC50 [1]: 359 nM

Fc1cc(-c2[nH]c(SCc3ccccc3)nc2-c2cccc(C(F)(F)F)c2)ccn1
IC50 [2]: 83600 nM
IC50 [1]: 1950 nM

CSc1nc(-c2ccc(F)cc2)c(-c2ccnc(OCc3ccccc3)c2)[nH]1
IC50 [2]: 44700 nM
IC50 [1]: 436 nM

CSc1nc(-c2ccc(F)cc2)c(-c2ccnc(NC(Cc3ccccc3)c3ccccc3)c2)[nH]1 (centres undefined)
IC50 [2]: 43500 nM
IC50 [1]: 348 nM

CSc1nc(-c2ccc(F)cc2)c(-c2ccnc(OC(C)c3ccccc3)c2)[nH]1 (centres undefined)
IC50 [2]: 44300 nM
IC50 [1]: 639 nM

CSc1nc(-c2ccc(F)cc2)c(-c2ccnc(NCc3ccc(C(C)(C)C)cc3)c2)[nH]1
IC50 [2]: 52600 nM
IC50 [1]: 1340 nM

CSc1nc(-c2ccc(F)cc2)c(-c2ccnc(NCCC(C)(C)C)c2)[nH]1
IC50 [2]: 4540 nM
IC50 [1]: 126 nM

Fc1ccc(-c2nc(SCc3ccccc3)[nH]c2-c2ccnc(Cl)c2)cc1
IC50 [2]: 50900 nM
IC50 [1]: 2900 nM

CCC(Nc1cc(-c2nc(SC)[nH]c2-c2ccc(F)cc2)ccn1)c1ccccc1 (centres undefined)
inhibition at 10 µM [4]: 55%
inhibition at 10 µM [5]: 80%
inhibition at 10 µM [6]: 88%
inhibition at 10 µM [7]: 81%
IC50 [1]: 68 nM
inhibition at 10 µM [8]: 73%

CCC(CO)Nc1cc(-c2[nH]c(SC)nc2-c2ccc(F)cc2)ccn1 (centres undefined)
IC50 [2]: 239 nM
IC50 [1]: 10 nM

CSc1nc(-c2ccc(F)cc2)c(-c2ccnc3ccccc23)[nH]1
IC50 [2]: 16800 nM
IC50 [3]: 35000 nM
IC50 [1]: 411 nM

CSc1nc(-c2cccc(C(F)(F)F)c2)c(-c2ccnc(NC(C)C(C)C)c2)[nH]1 (centres undefined)
IC50 [2]: 2930 nM
IC50 [3]: 1360 nM
IC50 [1]: 34 nM

CSc1nc(-c2cccc(C(F)(F)F)c2)c(-c2ccnc(NCC(C)c3ccccc3)c2)[nH]1 (centres undefined)
IC50 [2]: 23000 nM
IC50 [1]: 93 nM

COCCn1c(SC)nc(-c2ccc(F)cc2)c1-c1ccnc(NCC(C)O)c1 (centres undefined)
IC50 [2]: 6380 nM
IC50 [1]: 146 nM

CSc1nc(-c2ccc(F)cc2)c(-c2ccnc(NC(CO)C(C)C)c2)[nH]1 (centres undefined)
IC50 [2]: 1060 nM
IC50 [1]: 34 nM

COCCn1c(SC)nc(-c2ccc(F)cc2)c1-c1ccnc(N[C@H](C)CO)c1
IC50 [1]: 485 nM

CSc1nc(-c2ccc(F)cc2)c(-c2ccnc(NC3CCC(C)CC3)c2)[nH]1 (mixture of isomers)
IC50 [2]: 5400 nM
IC50 [1]: 20 nM

CSc1nc(-c2ccc(F)cc2)c(-c2ccncc2)n1C
IC50 [2]: 5100 nM
IC50 [3]: 80 nM

CSc1nc(-c2cccc(C(F)(F)F)c2)c(-c2ccnc(NC3CCCc4ccccc43)c2)[nH]1 (centres undefined)
IC50 [2]: 21200 nM
IC50 [3]: 10300 nM
IC50 [1]: 248 nM

CSc1nc(-c2ccc(F)cc2)c(-c2ccnc(NCc3ccccc3)c2)[nH]1
IC50 [1]: 139 nM

CSc1nc(-c2ccc(F)cc2)c(-c2ccnc(OCc3cccs3)c2)[nH]1
IC50 [2]: 38400 nM
IC50 [1]: 424 nM

CSc1nc(-c2ccc(F)cc2)c(-c2ccnc(N[C@@H](C)C3CCCCC3)c2)[nH]1
IC50 [2]: 27600 nM
IC50 [1]: 153 nM

COCCn1c(SC)nc(-c2ccc(F)cc2)c1-c1ccnc(NC2CCOCC2)c1
IC50 [2]: 5880 nM
IC50 [1]: 38 nM

CSc1nc(-c2cccc(C(F)(F)F)c2)c(-c2ccnc(NCc3cccs3)c2)[nH]1
IC50 [2]: 26800 nM
IC50 [1]: 239 nM

CSc1nc(-c2ccc(F)cc2)c(-c2ccnc(NCc3ccc(C)o3)c2)[nH]1
IC50 [2]: 7430 nM
IC50 [1]: 113 nM

CSc1nc(-c2ccnc(NC3CCOCC3)c2)c(-c2ccc(F)cc2)[nH]1
IC50 [1]: 5 nM

CSc1nc(-c2ccc(F)cc2)c(-c2ccnc(NCc3cccc4ccccc34)c2)[nH]1
IC50 [2]: 28000 nM
IC50 [1]: 171 nM

CSc1nc(-c2ccc(F)cc2)c(-c2ccnc(NC(Cc3ccccc3)Cc3ccccc3)c2)[nH]1
IC50 [2]: 43600 nM
IC50 [1]: 2150 nM

C[S+]([O-])c1ccc(-c2nc(-c3ccncc3)c(-c3ccc(F)cc3)[nH]2)cc1 (centres undefined) [SB-203580]
inhibition at 10 µM [4]: 38%
inhibition at 10 µM [5]: 87%

CSc1nc(-c2ccc(F)cc2)c(-c2ccnc(Cl)c2)[nH]1
IC50 [1]: 1040 nM

CCC(C)CNc1cc(-c2[nH]c(SC)nc2-c2ccc(F)cc2)ccn1 (centres undefined)
IC50 [2]: 622 nM
IC50 [3]: 2760 nM
IC50 [1]: 23 nM

CSc1nc(-c2ccnc(NCCCO)c2)c(-c2ccc(F)cc2)[nH]1
IC50 [2]: 680 nM
IC50 [1]: 15 nM

CSc1nc(-c2ccc(F)cc2)c(-c2ccnc(N[C@H]3CC[C@@H](C)CC3)c2)[nH]1
IC50 [2]: 3680 nM
IC50 [1]: 31 nM

CSc1nc(-c2cccc(C(F)(F)F)c2)c(-c2ccnc(NCCCO)c2)[nH]1
IC50 [2]: 5190 nM
IC50 [1]: 61 nM

COCCn1c(SC)nc(-c2ccc(F)cc2)c1-c1ccnc(NC[C@H]2CCCC[C@@H]2O)c1
IC50 [2]: 11500 nM
IC50 [1]: 235 nM

CSc1nc(-c2ccnc(NC3CCCc4ccccc43)c2)c(-c2ccc(F)cc2)[nH]1 (centres undefined)
IC50 [2]: 2810 nM
IC50 [3]: 16200 nM
IC50 [1]: 47 nM

CSc1nc(-c2cccc(C(F)(F)F)c2)c(-c2ccnc(N[C@H]3CC[C@H](O)CC3)c2)[nH]1
IC50 [2]: 1680 nM
IC50 [1]: 11 nM

CSc1nc(-c2ccc(F)cc2)c(-c2ccnc(OC(C)CCCC(C)C)c2)[nH]1 (centres undefined)
IC50 [2]: 42700 nM
IC50 [1]: 641 nM
